{
  "source": "patent US20220308044A1",
  "about": "“NOVEL LIVE-CELL ASSAY FOR NEURONAL ACTIVITY” (UNIVERSITY OF UTAH RESEARCH FOUNDATION, priority 2019, published 2022)",
  "molecules": {"B1": {"name": "BDNF: a neurotropic factor that enhances synapse formation and transmission (protein, UniProt P23560 19-247, looked up)", "Neurotrophic factor BDNF …": "APMKEANIRGQGGLAYPGVRTHGTLESVNGPKAGSRGLTSLADTFEHVIEELLDEDQKVRPNEENNKDADLYTSRVMLSSQVPLEPPLLFLLEEYKNYLDAANMSMRVRRHSDPARRGELSVCDSISEWVTAADKKTAVDMSGGTVTVLEKVPVSKGQLKQYFYETKCNPMGYTKEGCRGIDKRHWNSQCRTTQSYVRALTMDSKKRIGWRFIRIDTSCVCTLTIKRGR"}},
  "key": {"[1]": {"test_system": "CamKII neurons", "experiment": "Cre-dependent (floxed) SNAR assay with CamKII:Cre", "assay_type": "cell-based, mouse", "conditions": "FIG. 6C", "experimental": "Plasmid Cloning. The SNAR construct was synthesized by first introducing 2 core SARE (cSARE) sequences into an AAV vector backbone that included the Arc minimal promoter and the Gaussia luciferase coding sequences using inFusion cloning. A single cSARE sequence was synthesized using a long primer that was then used as a PCR template. Two additional cSARE sequences were then added, one at a time preceding the first 2 cSAREs. The entire 4× cSARE-ArcMin-Gluc was then cloned as an insert into an FCK vector (Addgene, Watertown, Mass.; catalog no. 51694) using restriction enzymes PacI and EcoRI for use as a transfer plasmid and packaging into lentivirus particles. Secreted Nanoluciferase (sNluc) was obtained by adding the Ig-kappa signal peptide to its N-terminus using a long primer. sNluc was then inserted into an FCK vector with the hPGK promoter. Each construct was then cloned into a DIO vector backbone (Addgene, Watertown, Mass.; catalog no. 87168) to obtain a Cre-dependent expression construct. […]\nLuciferase Assays. To determine luciferase activity luminescencence from media samples was measured. […] For substrates, Coelenterazine (CTZ)-native (NanoLight Technology, Pinetope, Ariz.; catalog no. 303) and FMZ (Promega NanoGlo Assay; Promega, Madison, Wis.; catalog no. N1110) were added using a micro-injector connected to the plate reader (BioTek Synergy HT; Winooski, Vt.). […]"}, "[2]": {"test_system": "WT neurons", "experiment": "Secreted Neuronal Activity Reporter (SNAR) dual secreted luciferase assay in primary neuronal cultures", "assay_type": "cell-based, mouse", "conditions": "for effect of individual inhibitors on SNAR activity: prolonged treatment, FIG. 3A"}},
  "data": [
    {"molecule": "NC(CCCP(=O)(O)O)C(=O)O", "note": "(centres unmarked) [AP5]", "values": [
      {"measurement": "effect on reporter accumulation", "setting": "[1]", "value": "decrease in reporter accumulation similar to that of the non-specific reporter"},
      {"measurement": "effect of individual inhibitors on SNAR activity", "setting": "[2]", "value": "dramatically suppressed SNAR activity"}
    ]},
    {"molecule": "NC(=O)N1c2ccccc2C=Cc2ccccc21", "note": "[CBZ, carbamazepine]", "values": [
      {"measurement": "effect on SNAR", "setting": "[2]; 50 μM, FIG. 4A", "value": "reduced SNAR"}
    ]},
    {"molecule": "N#Cc1cc2[nH]c(=O)c(=O)[nH]c2cc1[N+](=O)[O-]", "note": "[CNQX]", "values": [
      {"measurement": "time after treatment at which the increase in SNAR activity was observed", "setting": "[2]; kinetic analysis, chronic blockage of AMPAR-mediated transmission, FIG. 3B", "value": "16 to 40", "unit": "h"},
      {"measurement": "effect of individual inhibitors on SNAR activity", "setting": "[2]", "value": "increased SNAR activity"}
    ]},
    {"molecule": "N#CC(=C(/N)Sc1ccccc1N)/C(C#N)=C(\\N)Sc1ccccc1N", "note": "[U0126]", "values": [
      {"measurement": "effect on SNAR activity / accumulation", "setting": "[2]", "value": "significantly suppressed SNAR accumulation"}
    ]},
    {"molecule": "O=C1NC(=O)C(c2ccccc2)(c2ccccc2)N1", "note": "[phenytoin]", "values": [
      {"measurement": "effect on reporter activity", "setting": "[2]; 80 μM, at DIV14, FIG. 4A", "value": "significantly reduced reporter activity"}
    ]},
    {"molecule": "B1", "values": [
      {"measurement": "effect on reporter activity compared to a vehicle control", "setting": "[2]; 50 ng/mL, 16 hours and 40 hours after the treatment, FIG. 4B", "value": "significantly and robustly increased reporter activity"}
    ]}
  ]
}
